Results published in US9447028B2, “Therapeutic aryl-amido-aryl compounds and their use” (King's College London, priority 2009, dated 2016).

Assays:
Assay type in all cases: cell-based
RARα = molecular target: T1, RARα (Homo sapiens, UniProt P10276); experiment: Transactivation assay for RAR alpha (gal4-RAR fusion, luciferase reporter, COS-7 cells); details: for RARα/RARβ ratio (*): fold-selectivity for RARα over RARβ; for RARα activity ratio: ratio of test compound EC50 to that of atRA on the same plate; for Improvement (RARα activity ratio) / Improvement (RARα/RARβ ratio): compared with XXX-03
T1 construct: gal4 (fusion partner); expressed in transfected cells; host or cells: COS-7
T1 sequence (P10276 183-417 limits assumed): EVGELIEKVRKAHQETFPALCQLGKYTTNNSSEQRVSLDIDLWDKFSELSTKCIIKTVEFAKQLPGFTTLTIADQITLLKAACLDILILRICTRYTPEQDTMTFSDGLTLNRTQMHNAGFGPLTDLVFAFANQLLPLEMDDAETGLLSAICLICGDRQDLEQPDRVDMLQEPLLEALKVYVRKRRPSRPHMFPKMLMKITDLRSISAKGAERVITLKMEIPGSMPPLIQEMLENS
Description: (§1) Transcriptional transactivation assays were performed with gal4 fusion receptor constructs, created using each of the RAR ligand binding domains, co-transfected with the pFR-luc (Stratagene™) reporter construct in COS-7 cells.
(§2) Briefly, on day 1, 96 well plates were seeded with 8000 cells per well then left to recover overnight. On day 2, the cells were co-transfected with 100 ng of reporter plasmid and 10 ng of the appropriate receptor plasmid per well using lipofectamine (Invitrogen™). On day 3, the lipofectamine containing media was replaced by a DMEM without phenol red, followed by the addition of test compound dissolved in 1 μL of DMSO to each well's 100 μL total volume. Finally, on day 4, the cells were lysed and their luciferase substrate was provided by the BrightGlo™ reagent (Promega™), the plates were then read on the MicroBeta TriLux™ (Perkin Elmer™).
(§3) Where replicate data has been generated, the data are quoted as a ratio of the mean EC50 from the separate experiments.

RARβ = molecular target: T2, RARβ (Homo sapiens, UniProt P10826); experiment: Transactivation assay for RAR beta (gal4-RAR fusion, luciferase reporter, COS-7 cells); details: ratio of test compound EC50 to that of atRA; inactive = no agonist action at the highest concentration tested
T2 construct: gal4 (fusion partner); expressed in transfected cells; host or cells: COS-7
T2 sequence (P10826 183-417 limits assumed): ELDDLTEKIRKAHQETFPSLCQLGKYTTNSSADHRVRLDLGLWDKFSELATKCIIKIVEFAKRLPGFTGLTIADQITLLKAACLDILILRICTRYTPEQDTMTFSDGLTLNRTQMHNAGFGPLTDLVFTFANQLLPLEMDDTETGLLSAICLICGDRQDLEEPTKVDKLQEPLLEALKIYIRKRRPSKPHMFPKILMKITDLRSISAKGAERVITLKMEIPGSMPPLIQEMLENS
Description: as §1, §2, §3

RARγ = molecular target: T3, RARγ (Homo sapiens, UniProt P13631); experiment: Transactivation assay for RAR gamma (gal4-RAR fusion, luciferase reporter, COS-7 cells); details: ratio of test compound EC50 to that of atRA; inactive = no agonist action at the highest concentration tested
T3 construct: gal4 (fusion partner); expressed in transfected cells; host or cells: COS-7
T3 sequence (P13631 185-419 limits assumed): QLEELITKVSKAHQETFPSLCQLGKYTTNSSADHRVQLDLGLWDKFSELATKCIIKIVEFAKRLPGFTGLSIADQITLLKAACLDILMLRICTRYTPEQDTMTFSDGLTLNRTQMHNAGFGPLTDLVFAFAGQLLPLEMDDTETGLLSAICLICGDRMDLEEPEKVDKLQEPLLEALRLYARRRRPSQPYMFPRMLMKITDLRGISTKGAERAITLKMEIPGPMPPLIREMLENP
Description: as §1, §2, §3

SMILES: COC(=O)c1ccc(NC(=O)c2cc(Cl)c(OC3CCCC3)c(Cl)c2)cc1 [AAA-002, Methyl 4-(3,5-dichloro-4-(cyclopentyloxy)benzamido)benzoate]
- RARα/RARβ ratio (*) (RARα): 58.0
- RARα activity ratio (RARα): 50
- RARβ activity ratio (RARβ): 2900
- RARγ activity ratio (RARγ): inactive

SMILES: CCCOc1c(Cl)cc(C(=O)Nc2ccc(C(=O)O)cc2)cc1Cl [AAA-003, 4-(3,5-Dichloro-4-propoxybenzamido)benzoic acid]
- Improvement (RARα activity ratio) (RARα): ~6.0-fold
- Improvement (RARα/RARβ ratio) (RARα): ~1.3-fold
- RARα/RARβ ratio (*) (RARα): 9.3
- RARβ activity ratio (RARβ): 139
- RARγ activity ratio (RARγ): 1200

SMILES: CC(C)Oc1c(Cl)cc(C(=O)Nc2ccc(C(=O)O)cc2)cc1Cl [AAA-004, 4-(3,5-Dichloro-4-isopropoxybenzamido)benzoic acid]
- Improvement (RARα activity ratio) (RARα): ~13-fold
- Improvement (RARα/RARβ ratio) (RARα): ~29-fold
- RARβ activity ratio (RARβ): 1420
- RARγ activity ratio (RARγ): 820

SMILES: O=C(O)c1ccc(NC(=O)c2cc(Cl)c(OCc3ccccc3)c(Cl)c2)cc1 [AAA-005, 4-(4-(Benzyloxy)-3,5-dichlorobenzamido)benzoic acid]
- Improvement (RARα activity ratio) (RARα): ~1.3-fold
- Improvement (RARα/RARβ ratio) (RARα): ~7.4-fold
- RARβ activity ratio (RARβ): 3570
- RARγ activity ratio (RARγ): 3770

SMILES: COc1cc(C(=O)Nc2ccc(C(=O)O)cc2)cc(Cl)c1OC1CCCC1 [AAA-006, 4-(3-Chloro-4-(cyclopentyloxy)-5-methoxybenzamido)benzoic acid]
- RARβ activity ratio (RARβ): 1054
- RARγ activity ratio (RARγ): 5840

SMILES: CCOc1c(Cl)cc(C(=O)Nc2ccc(C(=O)O)c(F)c2)cc1Cl [AAA-007, 4-(3,5-Dichloro-4-ethoxybenzamido)-2-fluorobenzoic acid]
- RARβ activity ratio (RARβ): 2010
- RARγ activity ratio (RARγ): inactive

SMILES: CCOc1cc(C(=O)Nc2ccc(C(=O)O)cc2)cc(OC(C)C)c1OCC [AAA-009, 4-(3,4-Diethoxy-5-isopropoxybenzamido)benzoic acid]
- RARβ activity ratio (RARβ): 2450
- RARγ activity ratio (RARγ): 960

SMILES: O=C(O)c1ccc(NC(=O)c2cc(Cl)c(OCC3CC3)c(Cl)c2)cc1 [AAA-010, 4-(3,5-Dichloro-4-(cyclopropylmethoxy)benzamido)benzoic acid]
- Improvement (RARα activity ratio) (RARα): ~0.9-fold
- Improvement (RARα/RARβ ratio) (RARα): ~3.5-fold
- RARβ activity ratio (RARβ): 2530
- RARγ activity ratio (RARγ): inactive

SMILES: O=C(O)c1ccc(NC(=O)c2cc(Cl)c(OC3CCC3)c(Cl)c2)cc1 [AAA-011, 4-(3,5-Dichloro-4-cyclobutoxybenzamido)benzoic acid]
- Improvement (RARα activity ratio) (RARα): ~2.6-fold
- Improvement (RARα/RARβ ratio) (RARα): ~12-fold
- RARβ activity ratio (RARβ): 2960
- RARγ activity ratio (RARγ): 21800

SMILES: O=C(O)c1ccc(NC(=O)c2cc(Cl)c(OCc3ccncc3)c(Cl)c2)cc1 [AAA-012, 4-(3,5-Dichloro-4-(pyridin-4-ylmethoxy)benzamido)benzoic acid]
- RARα/RARβ ratio (*) (RARα): 2.4
- RARα activity ratio (RARα): 533
- RARβ activity ratio (RARβ): 1300
- RARγ activity ratio (RARγ): inactive

SMILES: CCOc1c(Cl)cc(NC(=O)c2ccc(C(=O)O)cc2)cc1Cl [AAA-013, 4-(3,5-Dichloro-4-ethoxyphenylcarbamoyl)benzoic acid]
- RARα/RARβ ratio (*) (RARα): 11.8
- RARα activity ratio (RARα): 30
- RARβ activity ratio (RARβ): 355
- RARγ activity ratio (RARγ): inactive

SMILES: CCOc1c(Br)cc(NC(=O)c2ccc(C(=O)O)cc2)cc1Br [AAA-014, 4-(3,5-Dibromo-4-ethoxyphenylcarbamoyl)benzoic acid]
- RARα/RARβ ratio (*) (RARα): 23.3
- RARα activity ratio (RARα): 58
- RARβ activity ratio (RARβ): 1350
- RARγ activity ratio (RARγ): inactive

SMILES: CCOc1c(C(F)(F)F)cc(NC(=O)c2ccc(C(=O)O)cc2)cc1C(F)(F)F [AAA-015, 4-(4-Ethoxy-3,5-bis(trifluoromethyl)phenylcarbamoyl)benzoic acid]
- RARβ activity ratio (RARβ): 540
- RARγ activity ratio (RARγ): inactive

SMILES: CCOc1c(Cl)cc(C(=O)Nc2ccc(C(N)=O)cc2)cc1Cl [AAA-016, N-(4-Carbamoylphenyl)-3,5-dichloro-4-ethoxybenzamide]
- RARα activity ratio (RARα): 500

SMILES: CCOc1c(Cl)cc(C(=O)Nc2ccc(C(=O)OC)c(Cl)c2)cc1Cl [AAA-017, Methyl 4-(3,5-dichloro-4-ethoxybenzamido)-2-chlorobenzoate]
- RARα/RARβ ratio (*) (RARα): >500
- RARα activity ratio (RARα): 140
- RARβ activity ratio (RARβ): inactive

SMILES: CCOc1c(Cl)cc(C(=O)Nc2ccc(C(=O)O)c(Cl)c2)cc1Cl [AAA-018, 2-Chloro-4-(3,5-dichloro-4-ethoxybenzamido)benzoic acid]
- RARα/RARβ ratio (*) (RARα): 64.0
- RARα activity ratio (RARα): 151
- RARβ activity ratio (RARβ): 9660
- RARγ activity ratio (RARγ): inactive

SMILES: CCOc1c(Cl)cc(C(=O)Nc2ccc(C(=O)O)c(C)c2)cc1Cl [AAA-019, 4-(3,5-Dichloro-4-ethoxybenzamido)-2-methylbenzoic acid]
- Improvement (RARα activity ratio) (RARα): ~100-fold
- Improvement (RARα/RARβ ratio) (RARα): ~12-fold
- RARβ activity ratio (RARβ): 74
- RARγ activity ratio (RARγ): 136

SMILES: CCOc1c(Cl)cc(NC(=O)c2ccc(C(=O)O)cn2)cc1Cl [AAA-020, 6-(3,5-Dichloro-4-ethoxyphenylcarbamoyl)nicotinic acid]
- RARα/RARβ ratio (*) (RARα): 2.0
- RARα activity ratio (RARα): 108
- RARβ activity ratio (RARβ): 214
- RARγ activity ratio (RARγ): inactive

SMILES: CCOc1c(F)cc(NC(=O)c2ccc(C(=O)O)cc2)cc1F [AAA-021, 4-(4-Ethoxy-3,5-difluorophenylcarbamoyl)benzoic acid]
- RARα activity ratio (RARα): 760

SMILES: CCOc1c(Cl)cc(C(=O)Nc2cc(F)c(C(=O)O)c(F)c2)cc1C(F)(F)F [AAA-022, 4-(3-Chloro-4-ethoxy-5-(trifluoromethyl)benzamido)-2,6-difluorobenzoic acid]
- increase in RARα activity (RARα; compared with XXX-02): 5 fold
- RARα/RARβ ratio (*) (RARα): >50
- RARα activity ratio (RARα): 448
- RARβ activity ratio (RARβ): inactive
- RARγ activity ratio (RARγ): inactive

SMILES: CCOc1c(Br)cc(C(=O)Nc2ccc(C(=O)O)cc2)cc1Br [AAA-023, 4-(3,5-Dibromo-4-ethoxybenzamido)benzoic acid]
- RARβ activity ratio (RARβ): 404
- RARγ activity ratio (RARγ): 62370

SMILES: CCOc1c(Cl)cc(C(=O)Nc2ccc(C(=O)O)cc2)cc1OC [AAA-024, 4-(3-Chloro-4-ethoxy-5-methoxybenzamido)benzoic acid]
- RARα/RARβ ratio (*) (RARα): 12.2
- RARα activity ratio (RARα): 66
- RARβ activity ratio (RARβ): 805
- RARγ activity ratio (RARγ): 27200

SMILES: CCOc1c(Cl)cc(C(=O)Nc2ccc(C(=O)O)cc2)cc1C(F)(F)F [AAA-025, 4-(3-Chloro-4-ethoxy-5-(trifluoromethyl)benzamido)benzoic acid]
- increase in RARα activity (RARα; compared with XXX-01): 65 fold
- increase in RARα versus RARβ selectivity (RARα; compared with XXX-01): 3 fold
- RARβ activity ratio (RARβ): 131
- RARγ activity ratio (RARγ): inactive

SMILES: CCOc1c(Cl)cc(C(=O)Nc2ccc(C(=O)O)nc2)cc1Cl [AAA-026, 5-(3,5-Dichloro-4-ethoxybenzamido)picolinic acid]
- RARα/RARβ ratio (*) (RARα): 27.3
- RARα activity ratio (RARα): 180
- RARβ activity ratio (RARβ): 4920
- RARγ activity ratio (RARγ): inactive

SMILES: CCOc1c(Cl)cc(C(=O)Nc2ccc(C(=O)O)cn2)cc1Cl [AAA-027, 6-(3,5-Dichloro-4-ethoxybenzamido)nicotinic acid]
- RARα/RARβ ratio (*) (RARα): >5
- RARα activity ratio (RARα): 260
- RARβ activity ratio (RARβ): inactive

SMILES: CCOc1cc(C(=O)Nc2ccc(C(=O)O)cc2)cc(OCC)c1OCC [AAA-028, 4-(3,4,5-triethoxy-benzoylamino)-benzoic acid]
- RARα/RARβ ratio (*) (RARα): 173.0
- RARα activity ratio (RARα): 370
- RARβ activity ratio (RARβ): 64000
- RARγ activity ratio (RARγ): inactive

SMILES: COc1c(Cl)cc(C(=O)Nc2ccc(C(=O)O)c(F)c2)cc1C(F)(F)F [AAA-066, 4-(3-Chloro-4-methoxy-5-(trifluoromethyl)benzamido)-2-fluorobenzoic acid]
- RARα/RARβ ratio (*) (RARα): 236
- RARα activity ratio (RARα): 32
- RARβ activity ratio (RARβ): 7558

SMILES: CCOc1ccc(C(=O)Nc2cc(F)c(C(=O)O)c(F)c2)cc1C(F)(F)F [XXX-02, 4-(4-Ethoxy-3-(trifluoromethyl)benzamido)-2,6-difluorobenzoic acid, reference compound]
- RARα activity ratio (RARα): 2242
